Activity calls are given as the source filed them.

Assay [1] has as its system HEK293. Put plainly: cells. Particulars: Homo sapiens.
A further assay concerns Vero. Put plainly: cells. It is filed as functional. As to conditions: Chlorocebus sabaeus.
Assay [2] is described as follows: HEK-293T viability loss after treatment – luminescence, T-cell screen hits, cytotoxicity control for TCR NF-kB inhibitor project, dose response (AID 489026).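 Further: cells exposed to compound about 14 hours before the viability readout.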 It is filed as functional, cell-based.
Assay [3] is described as follows: Luminescence-based counterscreen assay for KLF5 inhibitors: dose response cell-based high throughput screening assay to identify cytotoxic compounds using the IEC-6 intestinal epithelial cell line. [Related pubchem assays: 1700 (Primary screen.), 1834 (Confirmation screen.), 1858 (Summary AID.), 1905 (Counterscreen.)]. The class given is functional.
Assay [4] is described as follows: ADP-Glo luciferase signal interference – biochemical, luminescence, cherry-picked samples, set 2, artefact control for CDK5 inhibitor project, dose response (AID 504546). It is filed as functional, cell-based.
Assay [5] relates to BJ. Put plainly: cells. As to conditions: Homo sapiens. The class given is functional, cell-based.
The subject of assay [6] is BJ. The assay can be described thus: BJ-TERT fibroblast viability loss – cell-based, RAS-independent, luminescence, dose response (AID 1933). It is filed as functional. Particulars: Homo sapiens.
A short description of assay [7]: DRD fibroblast viability loss – cell-based, non-viral oncogenic, luminescence, dose response (AID 1934). It is filed as functional. Particulars: Homo sapiens.
The target of the next assay is Genome polyprotein (dengue virus type 2, UniProt P29990). The assay can be described thus: flavivirus cap methylation enzyme inhibition – biochemical, confirmation dose response, primary screen (AID 588689). It is filed as functional.
Chain of Genome polyprotein (P29990 2492-3391 limits assumed): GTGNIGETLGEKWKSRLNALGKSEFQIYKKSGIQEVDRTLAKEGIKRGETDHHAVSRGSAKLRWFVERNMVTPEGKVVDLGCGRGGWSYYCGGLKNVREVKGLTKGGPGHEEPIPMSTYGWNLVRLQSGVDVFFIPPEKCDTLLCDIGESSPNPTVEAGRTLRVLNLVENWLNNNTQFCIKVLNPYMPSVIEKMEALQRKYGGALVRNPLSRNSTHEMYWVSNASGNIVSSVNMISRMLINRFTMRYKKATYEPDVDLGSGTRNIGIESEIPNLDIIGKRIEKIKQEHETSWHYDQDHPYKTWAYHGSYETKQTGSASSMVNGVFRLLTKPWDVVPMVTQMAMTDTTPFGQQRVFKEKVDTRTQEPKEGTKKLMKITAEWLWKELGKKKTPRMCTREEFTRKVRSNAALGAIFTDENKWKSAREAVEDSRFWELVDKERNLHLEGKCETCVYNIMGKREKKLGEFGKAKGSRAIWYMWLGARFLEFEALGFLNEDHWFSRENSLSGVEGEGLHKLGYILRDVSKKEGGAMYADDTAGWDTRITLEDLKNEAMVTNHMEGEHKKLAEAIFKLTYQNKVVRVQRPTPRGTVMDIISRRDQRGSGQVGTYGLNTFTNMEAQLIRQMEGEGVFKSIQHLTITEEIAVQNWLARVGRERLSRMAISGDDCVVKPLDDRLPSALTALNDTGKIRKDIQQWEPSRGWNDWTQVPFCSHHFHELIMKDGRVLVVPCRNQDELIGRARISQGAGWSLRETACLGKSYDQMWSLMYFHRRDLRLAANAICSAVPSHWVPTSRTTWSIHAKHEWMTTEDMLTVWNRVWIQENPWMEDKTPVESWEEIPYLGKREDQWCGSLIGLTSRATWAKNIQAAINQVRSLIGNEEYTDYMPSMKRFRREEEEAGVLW
Assay [8] deals with Envelope glycoprotein gp160 (Human immunodeficiency virus 1, UniProt Q6QLK5). Put plainly: cell-free HIV fusion peptide-binding blockers – biochemical, uHTS, fluorescence dequenching, […] (AID 1986).
Chain of Envelope glycoprotein gp160 (Q6QLK5 whole entry, the tested form may be a part): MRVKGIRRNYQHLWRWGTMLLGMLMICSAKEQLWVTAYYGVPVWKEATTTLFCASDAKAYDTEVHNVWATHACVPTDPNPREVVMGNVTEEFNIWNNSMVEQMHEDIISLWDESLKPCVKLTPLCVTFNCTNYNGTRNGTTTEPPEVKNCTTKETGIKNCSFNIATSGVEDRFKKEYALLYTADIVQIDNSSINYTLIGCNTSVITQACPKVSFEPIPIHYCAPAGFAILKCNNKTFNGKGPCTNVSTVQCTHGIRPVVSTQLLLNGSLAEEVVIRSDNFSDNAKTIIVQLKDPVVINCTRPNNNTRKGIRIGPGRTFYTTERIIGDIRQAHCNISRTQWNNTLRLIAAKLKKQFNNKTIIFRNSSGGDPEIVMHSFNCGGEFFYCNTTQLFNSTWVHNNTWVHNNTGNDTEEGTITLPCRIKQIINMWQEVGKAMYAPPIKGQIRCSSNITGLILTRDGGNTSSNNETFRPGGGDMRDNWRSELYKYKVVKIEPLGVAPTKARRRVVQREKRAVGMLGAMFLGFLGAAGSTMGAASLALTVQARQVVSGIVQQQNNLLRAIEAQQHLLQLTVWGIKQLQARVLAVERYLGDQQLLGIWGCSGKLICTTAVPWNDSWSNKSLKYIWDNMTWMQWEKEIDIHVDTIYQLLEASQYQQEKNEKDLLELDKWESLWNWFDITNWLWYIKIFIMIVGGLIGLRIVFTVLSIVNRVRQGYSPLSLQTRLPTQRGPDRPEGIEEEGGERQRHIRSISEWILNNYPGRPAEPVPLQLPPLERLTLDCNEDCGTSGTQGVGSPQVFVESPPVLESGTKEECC
Assay [9] deals with BJ. Put plainly: BJ-TERT-LT-ST fibroblast viability loss – cell-based, RAS-independent, luminescence, dose response (AID 1935).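 Further: BJ fibroblasts immortalized with TERT plus LT and ST oncogenes.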 It is filed as functional. Particulars: Homo sapiens.
Assay [10] relates to HEK293. Put plainly: inhibition of NOD1-driven NF-kB reporter – cell-based, luminescence, uHTS, primary screen (AID 1578). It is filed as functional. Particulars: Homo sapiens.
Another assay has as its target Tumor necrosis factor (Homo sapiens, UniProt P01375). Put plainly: analog potency on TNFa NF-kB signaling – cell-based, revised, SAR follow-up (AID 2337). The class given is functional.
Assay [11] deals with Nucleotide-binding oligomerization domain-containing protein 2 (Homo sapiens, UniProt Q9HC29). The assay can be described thus: PubChem AID 2334. The class given is functional.
In assay [12] the test system is HEK293. The assay can be described thus: cells. The class given is functional, cell-based. As to conditions: Homo sapiens.
For assay [13], the system named is HEK293. Put plainly: cells. As to conditions: Homo sapiens. The class given is functional, cell-based. This is another data set of the same source.
For assay [14], the system named is HEK293. The assay can be described thus: NOD2 signaling inhibitors in MDP-stimulated cells, cell-based, uHTS, luminescence (AID 2001). It is filed as functional. Particulars: Homo sapiens.
Assay [15] addresses T1, Nucleotide-binding oligomerization domain-containing protein 1 (Homo sapiens, UniProt Q9Y239).
T1 sequence (Q9Y239 whole entry): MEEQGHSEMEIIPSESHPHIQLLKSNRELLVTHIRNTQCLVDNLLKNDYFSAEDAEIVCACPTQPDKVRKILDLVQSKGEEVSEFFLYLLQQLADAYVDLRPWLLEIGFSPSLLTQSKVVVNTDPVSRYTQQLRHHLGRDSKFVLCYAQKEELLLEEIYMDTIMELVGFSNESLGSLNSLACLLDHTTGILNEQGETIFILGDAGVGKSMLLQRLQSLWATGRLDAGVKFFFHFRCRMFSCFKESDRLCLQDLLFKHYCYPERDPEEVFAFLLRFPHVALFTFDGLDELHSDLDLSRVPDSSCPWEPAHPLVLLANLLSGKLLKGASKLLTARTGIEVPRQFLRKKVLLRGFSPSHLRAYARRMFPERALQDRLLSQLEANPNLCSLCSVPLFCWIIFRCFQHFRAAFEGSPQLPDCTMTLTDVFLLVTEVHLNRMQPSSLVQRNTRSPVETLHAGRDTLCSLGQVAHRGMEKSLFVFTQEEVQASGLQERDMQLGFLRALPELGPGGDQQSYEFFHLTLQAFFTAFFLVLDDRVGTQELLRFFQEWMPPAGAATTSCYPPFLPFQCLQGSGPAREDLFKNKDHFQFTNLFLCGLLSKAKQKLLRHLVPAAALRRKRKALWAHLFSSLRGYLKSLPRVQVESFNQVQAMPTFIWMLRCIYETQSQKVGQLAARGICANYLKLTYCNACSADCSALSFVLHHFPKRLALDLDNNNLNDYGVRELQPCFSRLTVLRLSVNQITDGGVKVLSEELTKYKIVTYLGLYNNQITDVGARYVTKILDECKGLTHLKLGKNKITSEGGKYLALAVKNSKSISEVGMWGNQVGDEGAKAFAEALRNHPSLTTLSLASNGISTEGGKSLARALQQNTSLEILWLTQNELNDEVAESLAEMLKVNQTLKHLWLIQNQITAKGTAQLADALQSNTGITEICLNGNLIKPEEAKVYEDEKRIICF
The assay can be described thus: blockers of NOD1 pathway activity – revised, SAR follow-up (AID 2333). The class given is functional.

In assay [16] the target is T2, Intestinal-type alkaline phosphatase (Homo sapiens, UniProt P09923). Put plainly: human intestinal alkaline phosphatase activators, dose response, biochemical, luminescence, uHTS hits (AID 463120). It is filed as functional.
T2 sequence (P09923 whole entry): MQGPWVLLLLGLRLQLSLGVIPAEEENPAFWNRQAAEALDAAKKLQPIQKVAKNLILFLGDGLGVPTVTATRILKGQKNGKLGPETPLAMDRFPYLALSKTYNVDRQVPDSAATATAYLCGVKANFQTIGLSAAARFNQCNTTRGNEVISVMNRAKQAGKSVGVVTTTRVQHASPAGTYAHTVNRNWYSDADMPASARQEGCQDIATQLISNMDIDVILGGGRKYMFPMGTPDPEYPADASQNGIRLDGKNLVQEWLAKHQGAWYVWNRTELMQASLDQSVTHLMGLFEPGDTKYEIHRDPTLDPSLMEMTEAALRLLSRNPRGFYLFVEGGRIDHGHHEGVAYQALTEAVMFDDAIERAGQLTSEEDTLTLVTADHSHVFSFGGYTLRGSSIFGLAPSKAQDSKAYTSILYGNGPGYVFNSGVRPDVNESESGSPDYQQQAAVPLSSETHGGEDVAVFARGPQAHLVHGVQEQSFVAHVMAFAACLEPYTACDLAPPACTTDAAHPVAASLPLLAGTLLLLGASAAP
In assay [17] the target is Intestinal-type alkaline phosphatase (Mus musculus, UniProt P24822). The assay can be described thus: PubChem AID 488874. The class given is functional.
Chain of Intestinal-type alkaline phosphatase (Mus musculus, UniProt P24822) (P24822 whole entry): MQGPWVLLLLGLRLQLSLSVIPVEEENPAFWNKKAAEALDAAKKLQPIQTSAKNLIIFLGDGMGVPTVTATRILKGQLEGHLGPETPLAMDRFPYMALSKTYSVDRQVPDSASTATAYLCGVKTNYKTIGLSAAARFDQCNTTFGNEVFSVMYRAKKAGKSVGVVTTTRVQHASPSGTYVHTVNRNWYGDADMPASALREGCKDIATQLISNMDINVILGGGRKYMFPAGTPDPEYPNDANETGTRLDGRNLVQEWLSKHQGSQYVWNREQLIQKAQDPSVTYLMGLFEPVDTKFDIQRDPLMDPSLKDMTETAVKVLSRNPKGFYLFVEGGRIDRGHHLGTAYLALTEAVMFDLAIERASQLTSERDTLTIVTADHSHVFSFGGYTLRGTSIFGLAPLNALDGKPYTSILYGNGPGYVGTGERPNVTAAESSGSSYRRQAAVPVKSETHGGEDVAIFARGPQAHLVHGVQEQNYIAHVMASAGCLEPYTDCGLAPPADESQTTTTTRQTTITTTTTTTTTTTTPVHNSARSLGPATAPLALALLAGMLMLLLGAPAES
Assay [18] has as its target T3, Alkaline phosphatase, tissue-nonspecific isozyme (Homo sapiens, UniProt P05186).
T3 sequence (P05186 whole entry): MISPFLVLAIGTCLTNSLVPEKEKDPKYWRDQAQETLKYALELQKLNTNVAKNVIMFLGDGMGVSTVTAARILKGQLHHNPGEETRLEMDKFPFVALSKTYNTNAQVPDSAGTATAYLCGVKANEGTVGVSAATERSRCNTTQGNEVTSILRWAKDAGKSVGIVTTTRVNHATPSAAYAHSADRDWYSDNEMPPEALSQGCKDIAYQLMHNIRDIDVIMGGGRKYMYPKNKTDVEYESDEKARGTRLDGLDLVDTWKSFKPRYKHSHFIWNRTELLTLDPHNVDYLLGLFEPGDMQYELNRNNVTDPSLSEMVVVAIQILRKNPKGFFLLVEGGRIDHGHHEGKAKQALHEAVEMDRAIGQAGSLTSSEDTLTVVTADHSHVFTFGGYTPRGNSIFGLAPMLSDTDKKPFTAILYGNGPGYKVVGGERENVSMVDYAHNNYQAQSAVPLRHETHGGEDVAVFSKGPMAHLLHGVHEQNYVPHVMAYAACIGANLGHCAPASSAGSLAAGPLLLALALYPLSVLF
The assay can be described thus: activation of tissue-nonspecific alkaline phosphatase – biochemical, TNAP isozyme, human IAP uHTS hits, selectivity assay for human IAP activator project, dose response (AID 488886).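 Further: potency of compounds raising TNAP activity as a selectivity check on IAP activators.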 It is filed as functional.

Assay [19] addresses T2, Intestinal-type alkaline phosphatase. The assay can be described thus: activation of human intestinal alkaline phosphatase – biochemical, luminescent, uHTS hits, set 2, dose response (AID 488817).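 Further: potency of activators that raise enzyme activity.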 The class given is functional.
Assay [20] deals with T4, E3 ubiquitin-protein ligase XIAP (Homo sapiens, UniProt P98170). The assay can be described thus: small molecules displacing peptide from XIAP – biochemical, IAP family, fluorescence polarization (AID 1018). It is filed as functional.
T4 sequence (P98170 whole entry): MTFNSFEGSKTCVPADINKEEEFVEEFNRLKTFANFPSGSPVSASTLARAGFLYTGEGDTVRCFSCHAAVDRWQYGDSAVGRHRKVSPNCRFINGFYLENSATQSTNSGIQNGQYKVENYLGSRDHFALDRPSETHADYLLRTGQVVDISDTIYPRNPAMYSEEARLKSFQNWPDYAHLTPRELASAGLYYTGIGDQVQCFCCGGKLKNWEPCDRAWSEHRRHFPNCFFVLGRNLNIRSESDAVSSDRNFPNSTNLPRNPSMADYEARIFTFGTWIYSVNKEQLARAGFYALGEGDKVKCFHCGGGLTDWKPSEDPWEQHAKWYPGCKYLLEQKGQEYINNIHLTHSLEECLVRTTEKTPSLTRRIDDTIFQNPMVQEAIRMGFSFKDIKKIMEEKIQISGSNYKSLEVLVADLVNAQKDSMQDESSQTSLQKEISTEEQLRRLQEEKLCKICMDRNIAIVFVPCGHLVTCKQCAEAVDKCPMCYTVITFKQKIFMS
For assay [21], the target named is T4, E3 ubiquitin-protein ligase XIAP. Put plainly: Counter Screen using XIAP-Bir3 for Chemical Antagonists of Bir1/2 domains of IAP-family anti-apoptotic proteins. [Related pubchem assays (depositor defined):AID1018, AID1449, AID1514, AID1638, AID1749, AID1750, AID488957, AID488963].
The nature of assay [22]: protection from phage-mediated lysis, alamar blue read-out – E. coli UTI89, K1F phage, bacterial capsule biogenesis inhibitors (AID 488966). The class given is functional.
A further assay concerns the target T5, Leucine aminopeptidase (Plasmodium falciparum 3D7, UniProt Q8IL11).
T5 sequence (Q8IL11 whole entry): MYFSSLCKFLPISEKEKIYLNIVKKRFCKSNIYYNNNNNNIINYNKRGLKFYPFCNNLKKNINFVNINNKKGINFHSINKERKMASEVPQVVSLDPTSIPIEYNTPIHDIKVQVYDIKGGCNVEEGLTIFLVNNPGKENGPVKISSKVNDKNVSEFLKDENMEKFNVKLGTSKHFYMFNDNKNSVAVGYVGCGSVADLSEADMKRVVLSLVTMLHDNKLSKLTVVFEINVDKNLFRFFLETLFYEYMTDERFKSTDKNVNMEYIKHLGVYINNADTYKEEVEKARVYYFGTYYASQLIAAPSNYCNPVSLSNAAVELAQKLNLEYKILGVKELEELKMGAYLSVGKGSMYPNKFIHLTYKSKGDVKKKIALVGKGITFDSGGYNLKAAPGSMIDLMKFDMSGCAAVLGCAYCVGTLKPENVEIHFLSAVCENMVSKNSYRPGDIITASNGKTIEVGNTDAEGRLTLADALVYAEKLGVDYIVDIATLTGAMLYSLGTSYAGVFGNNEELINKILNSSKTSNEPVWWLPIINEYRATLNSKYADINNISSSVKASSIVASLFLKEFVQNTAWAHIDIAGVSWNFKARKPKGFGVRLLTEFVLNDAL
Put plainly: P. falciparum M17LAP inhibitors, primary screen, biochemical, fluorogenic H-Leu-NHMec substrate, 1536-well (AID 1619). It is filed as functional.

For assay [23], the target named is T3, Alkaline phosphatase, tissue-nonspecific isozyme.
Assay [24] is described as follows: inhibition of ADAM10 peptide cleavage – biochemical, FRET peptide substrate, recombinant human ADAM10, selectivity assay for ADAM17 exosite inhibitor project, dose response (AID 743259).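 Further: ADAM10 enzyme cleaving a FRET peptide substrate.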
Assay [25] concerns the target Disintegrin and metalloproteinase domain-containing protein 17 (Homo sapiens, UniProt P78536). The assay can be described thus: exosite inhibitors of ADAM17, dose response, biochemical (AID 743260).
In assay [26] the target is Scavenger receptor class B member 1 (Mus musculus, UniProt Q61009). Put plainly: mouse SR-BI DiI-HDL uptake blockers – ldlA[mSR-BI] cells, fluorescence, cherry pick, dose response (AID 493194).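 Further: cellular uptake of fluorescent DiI-labeled HDL measured as cell fluorescence.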 The class given is functional, cell-based.
Another assay addresses Aspartyl aminopeptidase (Plasmodium falciparum 3D7, UniProt Q8I2J3).
In a further assay the target is Procathepsin L (Homo sapiens, UniProt P07711).
Chain of Procathepsin L (P07711 whole entry): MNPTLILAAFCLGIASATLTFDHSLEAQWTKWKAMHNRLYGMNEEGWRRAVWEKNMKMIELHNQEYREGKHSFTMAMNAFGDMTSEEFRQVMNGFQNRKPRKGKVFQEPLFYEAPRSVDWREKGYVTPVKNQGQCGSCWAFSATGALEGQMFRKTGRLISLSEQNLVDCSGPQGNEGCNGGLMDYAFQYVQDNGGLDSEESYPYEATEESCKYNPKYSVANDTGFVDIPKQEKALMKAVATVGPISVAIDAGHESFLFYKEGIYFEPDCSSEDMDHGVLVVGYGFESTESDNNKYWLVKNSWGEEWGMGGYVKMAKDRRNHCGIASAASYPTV
A further assay addresses Beta-galactosidase (Escherichia coli, UniProt Q8VNN2). It is filed as functional.
Assay [27] concerns the target Eukaryotic translation initiation factor 4H (Homo sapiens, UniProt Q15056). The assay can be described thus: eIF4H binding inhibition – biochemical, uHTS, fluorescence polarization, translation initiation inhibitor project, primary screen (AID 2012).
Assay [28] concerns the target Polyadenylate-binding protein 1 (Homo sapiens, UniProt P11940). The assay can be described thus: blockers of PABP interaction with poly(A) – biochemical, fluorescence polarization, […] (AID 2014).

Chain of Aspartyl aminopeptidase (Q8I2J3 whole entry): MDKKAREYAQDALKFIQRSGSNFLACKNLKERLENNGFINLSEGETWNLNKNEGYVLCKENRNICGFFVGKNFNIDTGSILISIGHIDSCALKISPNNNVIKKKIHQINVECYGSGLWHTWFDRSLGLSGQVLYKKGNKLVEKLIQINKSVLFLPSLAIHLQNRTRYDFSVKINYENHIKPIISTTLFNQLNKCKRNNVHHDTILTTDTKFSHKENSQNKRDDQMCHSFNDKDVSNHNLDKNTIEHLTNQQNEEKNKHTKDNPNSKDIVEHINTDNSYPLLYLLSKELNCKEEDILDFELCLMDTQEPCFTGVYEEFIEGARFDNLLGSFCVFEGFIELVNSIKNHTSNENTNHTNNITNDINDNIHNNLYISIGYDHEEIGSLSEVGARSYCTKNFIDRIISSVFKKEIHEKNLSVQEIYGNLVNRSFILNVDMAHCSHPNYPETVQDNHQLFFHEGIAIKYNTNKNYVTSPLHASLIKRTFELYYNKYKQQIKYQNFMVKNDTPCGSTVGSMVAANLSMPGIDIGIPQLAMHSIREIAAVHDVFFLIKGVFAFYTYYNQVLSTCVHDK
Chain of Disintegrin and metalloproteinase domain-containing protein 17 (P78536 whole entry, the tested form may be a part): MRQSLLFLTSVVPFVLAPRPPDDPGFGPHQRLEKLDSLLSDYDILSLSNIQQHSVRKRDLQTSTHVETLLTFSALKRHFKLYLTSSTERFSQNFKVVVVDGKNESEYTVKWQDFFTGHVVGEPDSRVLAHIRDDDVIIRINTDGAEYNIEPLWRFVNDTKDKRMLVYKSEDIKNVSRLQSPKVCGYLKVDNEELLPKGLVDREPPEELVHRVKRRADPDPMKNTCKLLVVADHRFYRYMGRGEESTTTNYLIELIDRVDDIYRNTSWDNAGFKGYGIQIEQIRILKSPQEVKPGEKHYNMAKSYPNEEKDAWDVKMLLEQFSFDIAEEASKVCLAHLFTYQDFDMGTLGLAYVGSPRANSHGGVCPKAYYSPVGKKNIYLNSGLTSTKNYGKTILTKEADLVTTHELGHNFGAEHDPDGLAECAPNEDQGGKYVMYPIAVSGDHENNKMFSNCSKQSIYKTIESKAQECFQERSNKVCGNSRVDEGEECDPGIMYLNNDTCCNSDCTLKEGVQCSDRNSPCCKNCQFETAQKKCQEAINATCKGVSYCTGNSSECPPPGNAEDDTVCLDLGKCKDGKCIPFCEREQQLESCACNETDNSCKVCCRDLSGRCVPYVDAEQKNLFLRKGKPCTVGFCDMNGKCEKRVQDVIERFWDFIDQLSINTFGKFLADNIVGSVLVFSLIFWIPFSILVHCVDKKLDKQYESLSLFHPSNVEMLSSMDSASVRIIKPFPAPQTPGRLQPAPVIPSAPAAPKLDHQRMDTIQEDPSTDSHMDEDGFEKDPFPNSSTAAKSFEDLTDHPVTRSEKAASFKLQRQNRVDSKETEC

Consider `Cc1ccc(C(=O)O/N=C(\N)c2ccccn2)c(C)c1`, for which the IC50 in the assay on HEK293 [1] is > 20 µM (inactive); in assay [2], > 80 µM (inactive); in assay [3], 13.1 µM (not active). For the same compound, the CC50 in the assay with Vero was 22.5 µM (active). Also, the half-maximal activity concentration (AC50) in [4] is 17.7 µM (active).

Take `O=C(O)CCN1C(=O)/C(=C\c2cccc(Oc3ccccc3)c2)SC1=S`: the EC50 in the assay with BJ [5] is > 150 µM (not active); in the assay with BJ [6], > 150 µM (not active); in assay [7], > 150 µM (not active); in the assay with BJ [9], > 150 µM (inconclusive). Besides, the values for the IC50 (on Genome polyprotein; in assay [8]) were 37.4 µM (active) and 26.8 µM (active), respectively.

As to `NC(=O)C1CCN(c2ccc(S(=O)(=O)N3CCC(Cc4ccccc4)CC3)cn2)CC1`, the IC50 in the assay on HEK293 [1] was > 20 µM (inactive); on Tumor necrosis factor, 12.4 µM (active); in assay [11], 9.14 µM (active); in the assay on HEK293 [12], > 20 µM (inactive); in the assay on HEK293 [13], > 20 µM (inactive); in the assay with HEK293 [14], > 20 µM (inactive). Also, in [15], the half-maximal inhibitory concentration (IC50) was 5.76 µM (active). Also, in the assay with HEK293 [10], the half-maximal effective concentration (EC50) was 4.32 µM (active).

Regarding `CN(Cc1ccccc1)C(=O)c1nc[nH]c1C(=O)Nc1nccs1`, the values for the EC50 in assay [16], in [18] and in assay [19] were 10.1 µM (active), 16.6 µM (active) and 15.8 µM (active), respectively. Moreover, the 50% inhibitory concentration (IC50) in assay [17] was 74.8 µM (active).

In the case of `COc1ccc(-c2nnc(NC(=O)c3cc(C)on3)s2)cc1`, the half-maximal inhibitory concentration (IC50) in [20] is > 100 µM (not active); in assay [21], > 100 µM (inactive); in [22] it was > 75 µM (active).

In the case of `O=C1/C(=C/c2cccs2)NC(=S)N1C1CC1`, at Leucine aminopeptidase, the half-maximal inhibitory concentration (IC50) is 6.44 µM (active). The EC50 in assay [23] is listed as > 100 µM (not active).

For `N=C1/C(=C/c2cccn2CCOc2ccccc2)C(=O)N=C2SC=C(c3ccccc3)N12`, the IC50 in assay [24] and in assay [25] was > 69.5 µM (inactive) in each case. In assay [26], the AC50 was 16.9 µM (active).

Regarding `O=C(Nc1cc(N2CCOCC2)ncn1)NC1(C(F)(F)F)Oc2ccccc2O1`, the IC50 is 2.7 µM (active) at Aspartyl aminopeptidase and > 59.6 µM (not active) against Procathepsin L.

Turning to `C=CCN1CC[C@]23c4c5ccc(O)c4OC2C(=O)CC[C@@]3(O)C1C5` (stereo partly specified), the EC50 at Beta-galactosidase is > 31.5 µM (inactive).

Consider `Cc1ccc(NC(=O)COC(=O)/C=C/c2ccco2)cc1S(=O)(=O)N(C)C`, for which the IC50 was 21.9 µM (active) in assay [27] and 90.5 µM (active) in assay [28].

The record behind these values is ChEMBL document CHEMBL1201862, “PubChem BioAssay data set” (2004).
